# Laboratory results as given in patent US12391674B2, “Heterocyclic compounds for the treatment of epilepsy” (OTSUKA PHARMACEUTICAL CO., LTD., priority 2018, dated 2025).
# Key:
# [1] = system: DBA/2 mice; test: Audiogenic seizure model; assay type: in vivo; details: Mus musculus, DBA/2 mice, oral, auditory stimulation 1 hour after administration, read-out: Seizure suppression
# How it was run: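 Male and female DBA/2 mice (3 weeks old, 8/group) dosed orally at 30 mg/kg in 5% gum arabic; 1 h later exposed to 12.6 kHz, 100-110 dB tone for 1 min or until tonic seizure. Maximum seizure score (0–4) recorded; suppression rate graded A (≥90%), B (70–<90%), C (50–<70%).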
# [2] = system: ICR mice; test: Rotarod test (motor coordination); assay type: in vivo, mouse; details: oral, rotarod 1 hour after administration
# How it was run: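 Motor coordination was assessed in male ICR mice (Japan SLC, Inc., 5-6 weeks old, 8 per group). Animals were first trained to stay for 2 minutes on a rotarod turning at a fixed 15 rpm. One hour after oral dosing, each mouse was placed on a rod accelerating from 4 rpm to 40 rpm over 5 minutes, and latency to fall was recorded for up to 200 seconds. Latencies were expressed relative to the mean of the solvent-treated group.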
SMILES,inhibition in vivo at 30 mg/kg [1] [%],Motor dysfunction ([2]; dose 30 mg/kg),other results
COc1cccc(Oc2ccc(N3CCC(=O)NC3=O)cc2)c1 [Example 311],70 to 90,A (a coordination disorder of 25% or less),
"O=C1CCN(c2ccc(Oc3cccc(OC(F)F)c3)cc2)C(=O)N1 [Example 314, 1-{4-[3-(Difluoromethoxy) Phenoxy]Phenyl}Dihydropyrimidine-2,4 (1H,3H)-Dione]",> 90,A (a coordination disorder of 25% or less),
O=C1CCN(c2ccc(Oc3ccccn3)cc2)C(=O)N1 [Example 316],> 90,A (a coordination disorder of 25% or less),
O=C1CCN(c2ccc(Oc3ccccc3)nc2)C(=O)N1 [Example 320],> 90,B (a coordination disorder of more than 25% and 50% or less),
Cc1cc(Oc2ccccc2)ccc1N1CCC(=O)NC1=O [Example 323],,B (a coordination disorder of more than 25% and 50% or less),inhibition in vivo at 39 mg/kg ([1]; dose 39 mg/kg): 70 to 90%
Cc1cc(Oc2ccccc2)ncc1N1CCC(=O)NC1=O [Example 325],70 to 90,A (a coordination disorder of 25% or less),
"CC1CC(=O)NC(=O)N1c1ccc(Oc2ccccc2)cc1 (stereo not drawn) [Example 328, 6-Methyl-1-(4-Phenoxyphenyl)Dihydropyrimidine-2,4 (1H,3H)-Dione]",> 90,A (a coordination disorder of 25% or less),
O=C1CCN(c2ccc(Oc3ccccc3)c(F)c2)C(=O)N1 [Example 329],70 to 90,A (a coordination disorder of 25% or less),
O=C1CCN(c2ccc(Oc3ccccc3F)nc2)C(=O)N1 [Example 331],70 to 90,A (a coordination disorder of 25% or less),
O=C1CCN(c2ccc(Oc3cccc(F)c3)nc2)C(=O)N1 [Example 332],70 to 90,A (a coordination disorder of 25% or less),
Cc1cc(Oc2cccc(OC(F)(F)F)c2)ccc1N1CCC(=O)NC1=O [Example 336],70 to 90,A (a coordination disorder of 25% or less),
"CC1(C)CC(=O)NC(=O)N1c1ccc(Oc2ccccc2)cc1 [Example 337, 6,6-Dimethyl-1-(4-Phenoxyphenyl)Dihydropyrimidine-2,4 (1H,3H)-Dione]",> 90,A (a coordination disorder of 25% or less),
O=C1CCN(c2ccc(Cc3ccc(OC(F)(F)F)cc3)cc2)C(=O)N1 [Example 340],70 to 90,A (a coordination disorder of 25% or less),
"CCC1CC(=O)NC(=O)N1c1ccc(Oc2ccccc2)cc1 (stereo not drawn) [Example 343, 6-Ethyl-1-(4-Phenoxyphenyl)Dihydropyrimidine-2,4 (1H,3H)-Dione]",> 90,A (a coordination disorder of 25% or less),
"O=C1CCN(c2ccc(Oc3ccccc3)nn2)C(=O)N1 [Example 347, 1-(6-Phenoxypyridazin-3-Yl)Dihydropyrimidine-2,4 (1H,3H)-Dione]",> 90,A (a coordination disorder of 25% or less),
N#Cc1cc(-c2cnc(Oc3ccccc3)nc2)ccn1 [Example 348],,,inhibition in vivo at 1 mg/kg ([1]; dose 1 mg/kg): > 90%; Motor dysfunction ([2]; dose 1 mg/kg): A (a coordination disorder of 25% or less)
N#Cc1ccc(-c2cnc(Oc3ccccc3)nc2)nc1 [Example 349],,,inhibition in vivo at 3 mg/kg ([1]; dose 3 mg/kg): > 90%; Motor dysfunction ([2]; dose 3 mg/kg): A (a coordination disorder of 25% or less)
N#Cc1cccc(-c2cnc(Oc3ccccc3)nc2)n1 [Example 350],,,inhibition in vivo at 10 mg/kg ([1]; dose 10 mg/kg): > 90%; Motor dysfunction ([2]; dose 10 mg/kg): A (a coordination disorder of 25% or less)
